The source of these data is patent US10478501B2, “Method of treating disorders using a pharmaceutical composition of oligopeptides” (Merck Patent GmbH, priority 2011, dated 2019).

Structures are written as SMILES.

For data set [1] the following is noted: cited from earlier work.
Data set [2] deals with MDA-MB-231 breast cancer bone metastases. The data set is described as follows: Experimental breast cancer bone metastases in nude rats: volumes of osteolytic lesions and soft tissue components by VCT and MRI. Particulars: for Mean relative values of the OL (osteolytic lesion) volumes, increase compared to initial values at day 30 / Mean relative STC (soft tissue component) volume, increase compared to initial values at day 30: 75 mg/kg i.p. five times per week from day 30. The class given is in vivo, nude rats (RNU strain). How it is done: Nude rats (RNU strain) are obtained from Harlan-Winkelmann GmbH (Borchen, Germany) at the age of six weeks and housed in a specific pathogen-free environment in a mini barrier system of the central animal facility. Animals are kept under controlled conditions (21±2° C. room temperature, 60% humidity, 12 h light-dark rhythm) and offered autoclaved food and water ad libitum. Sub-confluent MDAMB-231 cells are harvested using 0.05% Trypsin-EDTA (Gibco®; Invitrogen, Karlsruhe, Germany) counted on a Neubauer's chamber and resuspended in RPMI-1640 to a final concentration of 10^5 cells in 200 μl. Rats are anesthetized using a mixture of nitrous oxide (1 l/min), oxygen (0.5 l/min) and isoflurane (1.5 vol. %). Arterial branches of the right hind leg are dissected and 10^5 cells injected into the superficial epigastric artery as described previously.^28 Bone metastases established and are observed exclusively in the femur, tibia and fibula of the right hind leg. 30 days after cancer cell transplantation, rats (n=24) are randomly divided into two groups, one group receiving the cyclic RGD-peptide inhibitor of αvβ3/αvβ5 integrins (cilengitide, EMD 121974^14, 17, 29; Merck, Darmstadt, Germany) intraperitoneally five times per week (75 mg/kg; n=12 rats) and the other, sham-treated group, serving as a control (n=12 rats). The observation period of all animals is 55 days and no rat in the study dies ahead of schedule.
After the inoculation of cancer cells each rat is imaged at days 30, 35, 45 and 55 using (i) a flat-panel equipped volumetric computed tomograph (Volume CT, Siemens, Germany) and (ii) a 1.5T clinical magnetic resonance scanner (Symphony, Siemens, Erlangen, Germany) equipped with a home-built receive-transmit coil (cylindrical volume resonator with an inner diameter of 83 mm and a usable length of 120 mm). Prior to in vivo imaging with VCT and MRI, rats are anesthetized with nitrous oxide, oxygen and isoflurane as described above.
VCT imaging is obtained using the following parameters: tube voltage 80 kV, tube current 50 mA, scan time 51 s, rotation speed 10 s, frames per second 120, matrix 512×512, and slice thickness 0.2 mm. Image reconstructions are performed using a modified FDK (Feldkamp Davis Kress) cone beam reconstruction algorithm (kernel H80a; Afra, Erlangen, Germany).
T2-weighted imaging is performed using a turbo spin echo sequence (orientation axial, TR 3240 ms, TE 81 ms, matrix 152×256, FOV 90×53.4 mm^2, slice thickness 1.5 mm, 3 averages, scan time 3 min 40 s). For dynamic contrast-enhanced MRI, a saturation recovery turbo flash sequence through the largest diameter of the tumor (orientation axial, TR 373 ms, TE 1.86 ms, matrix 192×144, FOV 130×97.5 mm, slice thickness 5 mm, measurements 512, averages 1, scan time 6 min 55 s) is used. After 20 s baseline, 0.1 mmol/kg Gd-DTPA (Magnevist; Bayer Schering Pharma, Berlin, Germany) is intravenously infused for a time period of 10 s.
Unenhanced VCT images and MRI-acquired T2-weighted images are analyzed using the Medical Imaging Interaction Toolkit (MITK, Heidelberg, Germany) to determine volumes of osteolytic lesions and soft tissue components, respectively. DCE-MRI acquired data is analyzed using the Dynalab workstation (Mevis Research, Bremen, Germany) according to the two-compartment model of Brix to determine the parameters amplitude A and exchange rate constant kep, as described.^23, 30 Briefly, the injected contrast media is distributed in both compartments (intravascular space and extravascular, interstitial space). The accumulation of contrast agent in these compartments over time is characterized by the amplitude A (associated with blood volume), whereas the exchange of contrast agent between the intravascular space and the interstitial space is characterized by the exchange rate constant kep (associated with vessel permeability). […]

In data set [3] the test system is A549. The experiment in a line: Cellular radiosensitivity by clonogenic cell survival assay, A549. The class given is cell-based, human. Particulars: combined with γ-radiation, given 1 h before and continued 23 h after irradiation. How it is done: (§1) Methods: Three non-small cell lung carcinoma lines (NSCLCs) (H460, A549 and H1299) and three head and neck squamous cell carcinoma lines (HNSCCs) (FaDu, SCC-15 and SCC-25) cell lines were used for in vitro experiments. Of these, H460 and FaDu were used for in vivo testing when grown as xenografts in nude mice. The effects of cilengitide (1-50 μg/ml, 24 h) on in vitro cell viability was determined by MTS assay and on cellular radiosensitivity by clonogenic cell survival assay after exposing the cells to graded single doses of γ-radiation with or without cilengitide (given 1 h before and continued for 23 h after irradiation). In vivo effect of cilengitide on radioresponse of xenografts was assessed by tumor growth delay. When tumor xenografts reached 7 mm in diameter cilengitide treatment (30 or 60 mg/d/5 or 10 days) was initiated followed by a single dose of 15 Gy local radiation (using ^137Cs γ-ray source), when the tumors reached 8 mm.

Data set [4] deals with U251 MG. The experiment in a line: U251 MG xenograft orthotopic brain model in nude rat, cilengitide with radiation. The class given is in vivo. Conditions: for Tumor volume (mm^3) median (histologic, Alu ISH): median (range). How it is done: Synergistic Effect of the Combination of Cilengitide with Radiation in U251 MG Xenograft Orthotopic Brain Model in Nude Rat Caspase 3 Staining (Shown in FIG. 17) [table] RT is radiotherapy. Single dose. EMD is cilengitide. Single dose.

Data set [5] relates to 4T1 mouse breast tumour cells. The data set is described as follows: Study 003: 4T1 orthotopic model (lung and liver metastases). It is filed as in vivo, female BALB/c mice. How it is done: 4T1 mouse breast tumour cells were orthotopically inoculated into the third mammary fat pad of female BALB/c mice. The mice were randomised into groups when the tumors reached a size of approximately 40 mm^3.
The mice in each group received treatment with either Vehicle Control (Placebo), EMD 121974 (75, 150 or 300 mg/kg as Composition according to Example 18) or Taxol® (8 mg/kg). The Vehicle Control and EMD 121974 were administered by subcutaneous injection, daily; Taxol® was administered by intravenous injection three times per week.
Body weight and tumour volume measurements were made for all mice three times per week. The lungs and liver were excised from all mice at termination. For lung metastasis assessment surface metastases of the lungs were counted and for liver metastasis assessment H&E-stained sections of liver were assessed for the presence and number of micro-metastases.

For data set [6], the system named is SCC-15. The data set is described as follows: In vitro cell viability by MTS assay, SCC-15. Conditions: 5 μg/ml, 24 h. The class given is cell-based, human. How it is done: as §1
[7] abbreviates: EMD (cilengitide) single dose + RT single dose, Control 41, RT 113, listed as EMD + RT.

With `CC(C)[C@H]1C(=O)N[C@@H](CCCN=C(N)N)C(=O)NCC(=O)N[C@@H](CC(=O)O)C(=O)N[C@H](Cc2ccccc2)C(=O)N1C` [Cilengitide, cyclo-(Arg-Gly-Asp-DPhe-NMeVal)], the MTD in humans entry in data set [1] was “no known MTD”. Further, the “Mean relative values of the OL (osteolytic lesion) volumes, increase compared to initial values at day 30” value in data set [2] (day 35 (control 1.9 fold)) is 1.5 fold; in data set [2] (day 45 (control 4.5 fold, p<0.05)), 2.4 fold; in data set [2] (day 55 (control 9.7 fold, p<0.01)), 3.5 fold. Also, the “Mean relative STC (soft tissue component) volume, increase compared to initial values at day 30” value was found to be 2.2 fold in data set [2] (day 35 (control 2.3 fold)); 4.9 fold in data set [2] (day 45 (control 10.4 fold, p<0.05)); 6.3 fold in data set [2] (day 55 (control 22.5 fold, p<0.01)). In data set [2] (treatment group, three of 12 rats, not in control animals), the “rats showing new bone formation under therapy as imaged by VCT” value was found to be 25%. Also, the radiosensitivity enhancement factor in data set [3] was 1.56. For the same molecule, the “Days post implant (range)” value is recorded as 131 (≥131) days in data set [4] (Cilengitide + RT, at 4 months) and 40 (40-41) days in data set [4] (Cilengitide alone, time of symptoms). For the same molecule, the “Tumor volume (mm^3) median (histologic, Alu ISH)” value in data set [4] (Cilengitide + RT, at 4 months) is on record as 0.10 (0.06-0.14) mm^3; in data set [4] (Cilengitide alone, at time of symptoms), 175 (158-208) mm^3. In addition, the “MRI finding of rat brain” value in data set [4] (Cilengitide alone, representative animal imaged at 17d) is “contrast-enhancing tumor is visible”; in data set [4] (Cilengitide+RT, representative animal imaged at 68 days (T2-MRI)) it was “no tumor is visible”. Also, the “Median Survival” value in data set [4] (setting [7]) is above 154 days. For the same molecule, the “Median Survival in Days” value in data set [4] (setting [7]) is above 154 vs 113 Days. The “spontaneous liver metastasis formation” value in data set [5] (75, 150 or 300 mg/kg daily s.c. as Composition according to Example 18, significant for all doses) was “inhibited spontaneous liver metastasis formation comparable to Taxol”. Besides, in data set [5] (daily s.c. as Composition according to Example 18, significant for 300 mg/kg/day), the “spontaneous lung metastasis formation” value is “spontaneous lung metastasis formation comparable to Taxol”. This molecule also registered an in vitro viability in data set [6] of 71.4±2.2%.
